Here are results for eleven compounds from US8962608B2, “Cycloalkylnitrile pyrazole carboxamides as janus kinase inhibitors” (Merck Sharp & Dohme Corp., priority 2011, dated 2015).

One may read the IC50 as the midpoint of a concentration-inhibition curve.
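Further: biochemical JAK kinase assay with HTRF detection.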

The target of this experiment is JAK2 (recombinant purified GST-tagged catalytic domain) (Homo sapiens (Human), UniProt O60674). The experiment is described as follows: biochemical.
Chain of JAK2 (recombinant purified GST-tagged catalytic domain) (O60674 849-1124): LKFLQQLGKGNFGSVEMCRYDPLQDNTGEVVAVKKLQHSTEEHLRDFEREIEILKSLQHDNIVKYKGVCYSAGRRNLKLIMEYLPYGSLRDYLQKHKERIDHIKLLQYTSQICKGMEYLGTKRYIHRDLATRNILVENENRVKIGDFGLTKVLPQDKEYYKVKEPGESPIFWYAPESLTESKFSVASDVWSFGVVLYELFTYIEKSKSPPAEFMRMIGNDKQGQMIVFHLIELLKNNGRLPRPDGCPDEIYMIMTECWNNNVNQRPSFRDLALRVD
On to `N#C[C@H]1C[C@H](OC(=O)Nc2ccccc2)CCC1n1cc(C(N)=O)c(Nc2ccc(F)cc2)n1` (mixture of isomers) [Example 34-3, (1R,3S,4S and 1S,3R,4R)-4-{4-carbamoyl-3-[(4-fluorophonyl)aminol-1H-pyrazol-1-yl}-3-cyanocyclohexyl phenylcarbamate], for which the IC50 was 0.013 µM. In the case of `N#C[C@H]1CCCC[C@@H]1n1cc(C(N)=O)c(Nc2ccc(C=O)cc2)n1` (single isomer, unassigned) [Example 17-25, 1-[(1S,2S or 1R,2R)-2-cyanocyclohexyl]-3-[(4-formylphenyl)amino]-1H-pyrazole-4-carboxamide], the IC50 worked out at 0.003 µM. Under `CC(C)(c1ccc(Nc2nn([C@H]3CCCC[C@@H]3C#N)cc2C(N)=O)cc1F)[C@H](O)C(F)(F)F` (single isomer, unassigned) [Example 17-32, 1-[(1S,2S or 1R,2R)-2-cyanocyclohexyl]-3-({3-fluoro-4-[(2S or 2R)-3,3,3-trifluoro-2-hydroxy-1,1-dimethylpropyl]phenyl}amino)-1H-pyrazole-4-carboxamide] stands 0.011 µM. Take `CC(C)(c1ccc(Nc2nn([C@H]3CCCC[C@@H]3C#N)cc2C(N)=O)cc1F)[C@@H](O)C(F)(F)F` (single isomer, unassigned) [Example 17-33, 1-[(1S,2S or 1R,2R)-2-cyanocyclohexyl]-3-({3-fluoro-4-[(2R or 2S)-3,3,3-trifluoro-2-hydroxy-1,1-dimethylpropyl]phenyl}amino)-1H-pyrazole-4-carboxamide]: the IC50 was found to be 0.004 µM. In the case of `N#C[C@H]1CCCC[C@@H]1n1cc(C(N)=O)c(Nc2cnc3cc(Cl)ccc3c2)n1` (single isomer, unassigned) [Example 17-61, 3-[(7-chloroquinolin-3-yl)amino]-1-[(1S,2S or 1R,2R)-2-cyanocyclohexyl]-1H-pyrazole-4-carboxamide], the IC50 is 0.021 µM. `N#Cc1cncc(Nc2nn([C@H]3CCCC[C@@H]3C#N)cc2C(N)=O)c1` (single isomer, unassigned) [Example 17-74, 1-[(1R,2R or 1S,2S)-2-cyanocyclohexyl]-3-[(5-cyanopyridin-3-yl)amino]-1H-pyrazole-4-carboxamide]: the IC50 was 0.049 µM. As for `N#Cc1ccc(Nc2nn([C@H]3CCCC[C@@H]3C#N)cc2C(N)=O)cn1` (single isomer, unassigned) [Example 17-75, 1-[(1R,2R or 1S,2S)-2-cyanocyclohexyl]-3-[(6-cyanopyridin-3-yl)amino]-1H-pyrazole-4-carboxamide], the IC50 is 0.022 µM. Turning to `Cc1cc(Nc2nn([C@H]3CCCC[C@@H]3C#N)cc2C(N)=O)cnc1C#N` (single isomer, unassigned) [Example 17-77, 1-[(1R,2R or 1S,2S)-2-cyanocyclohexyl]-3-[(6-cyano-5-methylpyridin-3-yl)amino]-1H-pyrazole-4-carboxamide], the IC50 came to 0.018 µM.

As to `N#C[C@H]1CCCC[C@@H]1n1cc(C(N)=O)c(Nc2ccc(S(=O)(=O)Nc3ccc4cccnc4c3)cc2)n1` (single isomer, unassigned) [Example 17-94, 1-[(1R,2R or 1S,2S)-2-cyanocyclohexyl]-3-{[4-(quinolin-7-ylsulfamoyl)phenyl]amino}-1H-pyrazole-4-carboxamide], the IC50 stood at 0.033 µM.

For `N#C[C@H]1CCCC[C@@H]1n1cc(C(N)=O)c(Nc2ccc(S(=O)(=O)N3CCOCC3)cc2)n1` (single isomer, unassigned) [Example 17-99, 1-[(1R,2R or 1S,2S)-2-cyanocyclohexyl]-3-{[4-(morpholin-4-ylsulfonyl)phenyl]amino}-1H-pyrazole-4-carboxamide], the IC50 was 0.001 µM.

As for `N#C[C@H]1C[C@H](O)CC[C@@H]1n1cc(C(N)=O)c(Nc2ccc(Cl)nc2)n1` (single isomer, unassigned) [Example 25-12, 3-[(6-chloropyridin-3-yl)amino]-1-[(1S,2S,4R or 1R,2R,4S)-2-cyano-4-hydroxycyclohexyl]-1H-pyrazole-4-carboxamide], the IC50 was determined as 0.02 µM.
